Values of other authors as cited in patent US20250017946A1, “COMBINATION OF A BILE ACID AND A PHENYL BUTYRATE COMPOUND FOR THE TREATMENT OF NEURODEGENERATIVE DISEASES” (Amylyx Pharmaceuticals, Inc., priority 2021, published 2025).

Tested on: patient populations
Conditions: for less common or rare adverse events / most commonly reported adverse events: individual component, multiple patient populations

Row | SMILES | less common or rare adverse events | most commonly reported adverse events | most common adverse reactions reported (≥1%) (use of TURSO)
1 | C[C@H](CCC(=O)NCCS(=O)(=O)O)[C@H]1CC[C@H]2[C@@H]3[C@@H](O)C[C@@H]4C[C@H](O)CC[C@]4(C)[C@H]3CC[C@]12C [TURSO, tauroursodeoxycholic acid] | skin rash and vomiting | mild diarrhea, abdominal and pain | abdominal discomfort, abdominal pain, diarrhea, nausea, pruritus, and rash
2 | O=C(O)CCCc1ccccc1 [PB, sodium phenylbutyrate] | nausea, vomiting, stomach upset, stomach pain, gastritis, headache, and skin rash | Menstrual irregularities, decreased appetite, sweat-like body odor, and bad taste | –
